Entries after “also recorded” stand apart in the source; their conditions may differ.
Key:
[1] = test system: Lymph node T cells from TR3 peptide 1-13 immune animals; experiment: Standard T cell proliferation assay (3H-thymidine incorporation); assay type: cell-based, Lewis rat; conditions: T cells from TR3 peptide 1-13 immune Lewis rats with antigen presenting cells; after 48 hours in culture, 18 hour period
Procedure: Lymph node T cells from TR3 peptide 1-13 immune animals were cultured in the presence of antigen presenting cells and either TR3 peptide 1-13 or TR3 peptide 14-32. ^3H-thymidine incorporation was assessed after 48 hours in culture for an 18 hour period. The T cells responded in this standard T cell proliferation assay to TR3 peptide 1-13 but not to TR3 peptide 14-32. […] This implies that the missing component is a B cell epitope.
(§1) Two peptides were synthesized, TR3 peptide 1-13 and TR3 peptide 1-32. Both contain the binding motif but only one was long enough to have a portion hanging outside of the MHC Class II binding cleft. Lewis rats were immunized with one or the other of these peptides and sera tested for the presence of antibodies that would recognize the TR31-32 peptide before and after immunization.

C57B1/6J mice = experiment: Antibody response in sera of immunized C57B1/6J mice, fluorescence ELISA for anti-TR3 binding antibodies; assay type: in vivo, mouse; conditions: immune sera collected after four weeks
Procedure: C57B1/6J mice were immunized with the native TR3 peptide 1-32 or with an altered TR3 sequence that contains a Threonine (T) to Phenylalanine (F) alteration at amino acid position 4 to introduce a known C57B1/6J MHC Class II binding motif. Immune sera were collected after four weeks and assessed for anti-TR3 binding antibodies by fluorescence ELISA.
(§2) The serum from rats immunized with TR3 peptide 1-32 were tested in a standard ELISA for epitope specificity. The protocol for ELISA has been described previously in (Tittle, Molecular Immunology 26:343-350, 1989), except that the substrate (methylumbelliferyl phosphate, MUP, Sigma-Aldrich, St. Louis, Mo.) was read fluorometrically rather than calorimetrically as with NPP (Nitrophenyl phosphate).
A T to F change in the sequence of TR3 at AA4 an H-2^b binding motif was generated and C57B1/6J mice were immunized with the native TR3 peptide or with the T-F variant peptide.

Lewis rats = experiment: Antibody response in sera of immunized Lewis rats, fluorescence ELISA on TR3 peptide coated plates; assay type: in vivo, Lewis rat; conditions: bled after six weeks; for antibody titer against TR3 peptide 1-32 in sera of rats immunized with the peptide: TR31-32 coated plates, before and after immunization
Procedure: Rats were immunized and rested for four weeks. Immune sera were assayed at 1:5000 and compared to pre-immune titers by fluorescence ELISA (see below) using TR3 peptide 1-32 coated plates.
Lewis rats were immunized with TR3 peptide 1-13 and after six weeks the animals were bled and sera tested for binding to TR31-13 or TR31-32 coated plates using fluorescence ELISA.
as §1, §2

Substance | T cell proliferative response to the peptide in culture (3H-thymidine incorporation) [1] | detectable anti-TR3 binding antibodies in immune sera of mice immunized with the peptide (C57B1/6J mice) | detectable anti-TR3 binding antibodies in immune sera of mice immunized with the peptide (C57B1/6J mice; listed as T-F variant peptide) | antibody titer against TR3 peptide 1-13 in sera of rats immunized with the peptide (Lewis rats; TR31-13 coated plates) | antibody titer against TR3 peptide 1-32 in sera of rats immunized with the peptide (Lewis rats) | antibody titer against TR3 peptide 1-32 in sera of rats immunized with the peptide (Lewis rats; listed as TR3 peptide)
TR3 peptide 14-32: amino acids 14-32 of the TR-3 peptide, extended peptide shown to be the B cell epitope (ALLLVLLGARAQGGTRSPR) | not |  |  |  |  | 
QGGFRSPRCDCAGDFHKKIGLFCCRGCPAGHY (Altered TR3 peptide with MHC class II binding motif from amino acids 4 through 12.; listed as Homo sapiens) |  | made an anti-TR3 response | immunogenic and induced an antibody response |  |  | 
QGGTRSPRCDCAG (MEQRPRGCAAVAA) [TR3 peptide 1-13] | very strong T cell responses; also recorded: good T-cell response |  |  | No detectable antibody | No detectable antibody | no appreciable antibody titer

Source: US20060013822A1, “Utilization of mhc class II binding motifs in immunization to produce immune, serum, monoclonal antibodies and vaccines” (priority 2002, published 2006)
